Results reported in PubChem BioAssay AID2376 (NMMLSC, 2010).

Target: Cell division control protein 42 homolog (Homo sapiens) (UniProt P60953)
Assay: Cdc42 GTP-binding inhibition at fixed GTP, dose response, mechanism study for Ras-family GTPase inhibitor project, biochemical, nucleotide-depleted protein, Mg buffer, constant GTP (AID 2376)
Conditions: GST-Cdc42 beads, BODIPY-GTP binding, flow cytometry

Chain of Cell division control protein 42 homolog (Homo sapiens) (P60953 whole entry, looked up): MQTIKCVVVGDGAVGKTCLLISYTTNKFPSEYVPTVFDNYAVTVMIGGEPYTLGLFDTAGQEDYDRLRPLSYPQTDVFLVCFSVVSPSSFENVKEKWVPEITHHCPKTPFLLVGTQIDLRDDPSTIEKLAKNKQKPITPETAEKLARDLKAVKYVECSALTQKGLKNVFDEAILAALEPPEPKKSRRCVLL

- EC50: 263 nM
Structure (SMILES): COc1ccc(C2CC(c3ccccc3)=NN2c2ccc(S(N)(=O)=O)cc2)cc1 (stereo unspecified)
